Data on 1 molecule can be found in patent US12310985B2, “Composition and method for treatment of diabetes” (SHENZHEN PROFOUND VIEW PHARMACEUTICAL TECHNOLOGY, priority 2020, dated 2025).

Where a name gives a salt, the structure may show the parent alone.

What all share (assay type): in vivo
Data set [1] can be described thus: Body weight of mice during experiments (high energy feed + STZ diabetic model). To be noted: Sample 10 mg/kg i.p., Positive control 22.5 mg/kg intragastric, 1 time/day. From the text: 3.2.1 C57BL/6 mice are more commonly used in diabetes tests. 90 C57BL/6 male mice (SPF level) with a body weight of 18.8-24.2 g at the beginning of the experiment were purchased from Guangdong Medical Laboratory Animal Center (Experimental Animal Production License No. SCXK (Yue) 2018-0002; Animal Certificate No. 44007200059759);
(§1) After each group was given a maintenance feed for 1 week, except for the negative control group, the other groups were replaced with the high energy feed from 3.1.7.1. After 3 weeks of feeding, each group was fasted for 24 h. Except for the negative control group, the other groups were intraperitoneally injected with 5 mg/mL STZ solution at a dose of 20 mL/kg bodyweight. All groups were fed for 4 days. Fasting blood glucose and glucose tolerance were measured on the 5th day, and the test was terminated the next day.
(§2) From the feeding of the maintenance feed, the sample group was intraperitoneally injected with the test sample solution once per day at 20 mL/kg bodyweight, the negative control group and the model control group were intraperitoneally injected with sodium chloride solution, and the positive control group was intragastrically administered with pioglitazone hydrochloride solution at a dose of 20 mL/kg bodyweight for 34 days until the end of the test. On the day of injection of STZ, each group was administered 4 h after STZ injection.
Weighed at the beginning of the trial, at the end of the trial, and once a week during the trial.

The subject of data set [2] is C57BL/6 male mice, high energy feed + STZ diabetic model. The experiment in a line: Fasting blood glucose index. As to the method:
as §1, §2
On the 5th day after intraperitoneal injection of STZ, the mice in each group were fasted for about 5 hours with water provided. After measuring the fasting blood glucose level (0 h), the sample group and positive control group were intraperitoneally injected with the corresponding drugs. The negative control group and the model control group were intraperitoneally injected with sodium chloride solution. After 20 minutes, each group was intragastrically administered with 0.125 g/mL glucose solution at 20 mL/kg bodyweight, and the blood glucose level was measured at 0.5, 1, 1.5, 2 h after the administration of the glucose solution. On the next day, the mice in each group were fasted for 5 h after the administration. The mice were anesthetized with 3% sodium pentobarbital solution in an amount of 10 mL/kg bodyweight, and sacrificed after collecting the eyeballs and bloods. The blood samples were centrifuged at 3000 r/min for 10 min, and the sera were collected for the detection of serum insulin, triglycerides, and total cholesterol. […]

The test system is the same in data set [3]. The data set is described as follows: Glucose tolerance index. The conditions noted are these: Sample 10 mg/kg, Positive control 22.5 mg/kg. As to the method: as §1, §2
On the 5th day after intraperitoneal injection of STZ, the mice in each group were fasted for about 5 hours with water provided. After measuring the fasting blood glucose level (0 h), the sample group and positive control group were intraperitoneally injected with the corresponding drugs. The negative control group and the model control group were intraperitoneally injected with sodium chloride solution. After 20 minutes, each group was intragastrically administered with 0.125 g/mL glucose solution at 20 mL/kg bodyweight, and the blood glucose level was measured at 0.5, 1, 1.5, 2 h after the administration of the glucose solution. On the next day, the mice in each group were fasted for 5 h after the administration. The mice were anesthetized with 3% sodium pentobarbital solution in an amount of 10 mL/kg bodyweight, and sacrificed after collecting the eyeballs and bloods. The blood samples were centrifuged at 3000 r/min for 10 min, and the sera were collected for the detection of serum insulin, triglycerides, and total cholesterol. At the same time, the pancreas of each animal was collected. Six animals in each group were fixed with 10% paraformaldehyde for HE staining and insulin immunohistochemical staining in pancreas. The remaining 6 animals were preserved at −80° C. for insulin content determination.
Calculate the area under the blood glucose curve at 0, 0.5, 1, 1.5, 2 h after glucose administration. The formula is as follows:
Area under the blood glucose curve: [(0 h blood glucose+0.5 h blood glucose)×0.5]/2+[(0.5 h blood glucose+1 h blood glucose)×0.5]/2+[(1 h blood glucose+1.5 h) Blood glucose level)×0.5]/2+[(1.5 h blood glucose level+2 h blood glucose value)×0.5]/2.

Data set [4] shares this test system. The data set is described as follows: Serum cholesterol (TC) and triglyceride (TG) content. The conditions noted are these: serum at end of experiment; Sample 10 mg/kg, Positive control 22.5 mg/kg. As to the method:
(§3) After each group was given a maintenance feed for 1 week, except for the negative control group, the other groups were replaced with the high energy feed from 3.1.7.1. After 3 weeks of feeding, each group was fasted for 24 h. Except for the negative control group, the other groups were intraperitoneally injected with 5 mg/mL STZ solution at a dose of 20 mL/kg bodyweight. All groups were fed for 4 days. Fasting blood glucose and glucose tolerance were measured on the 5th day, and the test was terminated the next day. […]
(§4) On the 5th day after intraperitoneal injection of STZ, the mice in each group were fasted for about 5 hours with water provided. […] After 20 minutes, each group was intragastrically administered with 0.125 g/mL glucose solution at 20 mL/kg bodyweight, and the blood glucose level was measured at 0.5, 1, 1.5, 2 h after the administration of the glucose solution. […]
(§5) At the end of the experiment, serum was collected for assaying serum insulin, triglycerides, and total cholesterol. The insulin resistance index was calculated.

The test system is the same in data set [5]. The data set is described as follows: Serum insulin content. To be noted: end of experiment; Sample 10 mg/kg, Positive control 22.5 mg/kg. As to the method: as §3, §4, §5
Data set [6] has the same test system. The experiment in a line: Pancreatic insulin content (ELISA). The conditions noted are these: end of experiment, Sample 10 mg/kg, Positive control 22.5 mg/kg. As to the method: as §1
From the feeding of the maintenance feed, the sample group was intraperitoneally injected with the test sample solution once per day at 20 mL/kg bodyweight, the negative control group and the model control group were intraperitoneally injected with sodium chloride solution, and the positive control group was intragastrically administered with pioglitazone hydrochloride solution at a dose of 20 mL/kg bodyweight for 34 days until the end of the test. […]
as §4

`CCc1ccc(CCOc2ccc(CC3SC(=O)NC3=O)cc2)nc1` (stereo not shown) [Positive control, Pioglitazone hydrochloride]: the Bodyweight in data set [1] (d 2) came to 22.2 ± 1.2 g; in data set [1] (d 9) it was 23.0 ± 1.3 g; in data set [1] (d 16), 24.2 ± 1.2 g; in data set [1] (d 23) it was 25.6 ± 1.5 g; in data set [1] (d 29), 26.2 ± 1.6 g; in data set [1] (d 32) it was 26.0 ± 1.4 g. The Bodyweight in data set [1] (d 35) is reported as 25.8 ± 1.3 g. Besides, the “Fasting blood glucose index, Post experiment” value in data set [2] (5th day after STZ, fasting about 5 h, Sample 10 mg/kg i.p., Positive control 22.5 mg/kg intragastric, 1 time/day) is on record as 13.8 ± 2.8 mmol/L. Also, in data set [2] ((prior − post)/prior × 100%, Sample 10 mg/kg i.p., Positive control 22.5 mg/kg intragastric), the “Decrease percentage of blood glucose” value is listed as −21.8 ± 39.0%. Besides, the “Fasting blood glucose index, Prior to Experiment” value in data set [2] (prior to experiment (baseline), fasting about 5 h) is 12.0 ± 2.6 mmol/L. Also, the “Glucose tolerance index, blood glucose” value in data set [3] (0 h, 5th day after STZ) came out at 13.8 ± 2.8 mmol/L; in data set [3] (0.5 h after glucose administration), 30.1 ± 5.4 mmol/L; in data set [3] (1 h after glucose administration), 26.9 ± 7.0 mmol/L; in data set [3] (1.5 h after glucose administration), 20.7 ± 6.2 mmol/L; in data set [3] (2 h after glucose administration), 17.9 ± 6.3 mmol/L. Further, the TC in data set [4] was found to be 4.76 ± 0.56 mmol/L. Further, the TG in data set [4] was 0.76 ± 0.14 mmol/L. Further, the serum insulin content in data set [5] is 28.2 ± 3.6 mIU/mL. Moreover, the pancreatic insulin content in data set [6] worked out at 8.4 ± 3.0 mIU/mL.
